Like-named read-outs stand apart in the source and are kept apart here.
Columns and labels:
human aminopeptidase N = target: T1, human aminopeptidase N (Homo sapiens, UniProt P15144); experiment: Aminopeptidase activity on intact cells with substrate alanine-p-nitroanilide; assay type: cell-based; conditions: concentrations as in footnote d
T1 construct: endogenous in cells
Method: (§1) Method. Infection of HL734 with CMV RC256 was performed as described in FIG. 1 in the presence of serial dilutions of either UT71 or a control mouse ascites. Cells were washed, fixed with glutaraldhyde and assayed for β-gal expression by incubation with p-nitrophenyl-β-D-galactopyranoside (1 mg/ml) and the production of p-nitrophenol was measured spectrophotometrically at 410 nm. To measure the effect of aminopeptidase inhibitors on viral infection, HL734 were preincubated with increasing concentrations of bestatin for 1 hour at 37° C., infected with CMV strain AD169 at an MOI=1-10 or SFV at an MOI=30 for 1 hour at 37° C., washed, and incubated in fresh media for six hours at 37° C. After fixation in ice cold acetone/methanol (1/1), CMV nuclear antigens were detected with a mouse monoclonal to the 72K CMV mIE protein (NEW/Dupont, Inc.) followed by a phycoerythrine-labelled F(ab′)2 fragment of rabbit-anti mouse IgG Dakopatts, Inc). […] Binding of HCMV to MRC-5 cells was carried out by incubating increasing concentration of ^35S-HCMV with MRC-5 cells for 2 hours at 4° C. Incubation was carried out in the presence of mouse IgG (Sigma, Inc.) or anti-leuM7 (Becton Dickinson, Inc.) at a concentration of 16 μg/ml. Cells were washed five times with hepes-buffered saline, solubilized with 0.5 M NaOH, and cell-associated ^35S-labelled virions was measured quantitatively by liquid scintillation counting. Aminopeptidase activity on intact cells was measured by plating 1-5×10^4 cells in 96-well plates, incubating overnight in fresh media, and the washed and incubated with alanine-p-nitroanilide (6 mM) at 37° C. At various times, the free p-nitroanilide released was measured spectrophoto-metrically at 410 nm. The aminopeptidase activity was normalized to cell number measured by BCA protein assay (Pierce). All measurements were determined in triplicate.
To investigate whether the enzymatic activity of APN is necessary for CMV infection, four different aminopeptidase inhibitors, actinonin, bestatin, 2,2′-dipyridyl and 1,10-phenanthroline, were evaluated for their effect on enzymatic activity and CMV infection bestatin and actinonin are competitive inhibitors of arinoneptidases, ard 1,10-phenanthroline and 2,2′-dipyridyl inhibit aminopeptidase activity by chelating zinc required for enzyme function. […] Toxicity of these substances, measured by trypan blue uptake in cells treated with the inhibitors, was less than 10% in the highest concentrations used (data not shown).

[1] = test system: Semliki Forest Virus (SFV); experiment: Semliki Forest Virus infection of HL734 cells, immunocytochemistry; assay type: cell-based; conditions: concentrations as in footnote d
Text: (§2) FIG. 2. Ability to inhibit infection by compounds that interact with human aminopeptidase N. Panel a: HL734 cells were infected with CMV strain RC256 in the presence of serial dilutions of either U71 (▪) or control mouse ascites ([]). Infection was quantitatively determined by spectrophotometric measurement of the cleavage of p-nitrophenyl-β-D-galactopyranoside by β-gal. Panel b: HL734 were infected with CMV strain AD169 (▪) or Semliki Forest Virus (SFV) ([]) in the presence of increasing concentration of bestatin. Infection was quantitatively determined by immunocytochemistry using an antibody to the mIE protein of CMV or immune serum to SFV and enumeration of infected calls. Panel c: the binding of ^35S-HCMV to MRC-5 cells in the presence of mouse IgG (X) or antibody to APN (∘). Panel d: the aminopeptidase N activity on the surface of HL734 (▪), NIH-3T3 (∘), hAPN-3T3 ([]), or hAPNmut-3T3 (Δ) cells expressed as optical density of reaction product p-nitroanilide.
as §1, with “Incubation was carried out in the presence of mouse IgG (Sigma, Inc.) or anti-leuM7 (Becton Dickinson, Inc.) at a concentration of 16 μg/ml.” left out

CMV strain AD169 = experiment: CMV AD169 infection of HL734 cells in the presence of aminopeptidase inhibitors, mIE immunocytochemistry; assay type: cell-based, human cytomegalovirus
Text: as §2, with “Ability to inhibit infection by compounds that interact with human aminopeptidase N. Panel a: HL734 cells were infected with CMV strain RC256 in the presence of serial dilutions of either U71 (▪) or control mouse ascites ([]).” left out
as §1
To investigate whether the enzymatic activity of APN is necessary for CMV infection, four different aminopeptidase inhibitors, actinonin, bestatin, 2,2′-dipyridyl and 1,10-phenanthroline, were evaluated for their effect on enzymatic activity and CMV infection bestatin and actinonin are competitive inhibitors of arinoneptidases, ard 1,10-phenanthroline and 2,2′-dipyridyl inhibit aminopeptidase activity by chelating zinc required for enzyme function.

[2] = Human betaherpesvirus 5, AD169, read-out: 50% inhibitory dose for CMV infection
[3] = chemical inhibitors at maximum non-toxic concentration: actinonin 5.45 mM, bestatin 4.35 mM, 1,10-phenanthroline 0.45 mM, 2,2′-dipyridyl 3.74 mM

T1 sequence (P15144 whole entry): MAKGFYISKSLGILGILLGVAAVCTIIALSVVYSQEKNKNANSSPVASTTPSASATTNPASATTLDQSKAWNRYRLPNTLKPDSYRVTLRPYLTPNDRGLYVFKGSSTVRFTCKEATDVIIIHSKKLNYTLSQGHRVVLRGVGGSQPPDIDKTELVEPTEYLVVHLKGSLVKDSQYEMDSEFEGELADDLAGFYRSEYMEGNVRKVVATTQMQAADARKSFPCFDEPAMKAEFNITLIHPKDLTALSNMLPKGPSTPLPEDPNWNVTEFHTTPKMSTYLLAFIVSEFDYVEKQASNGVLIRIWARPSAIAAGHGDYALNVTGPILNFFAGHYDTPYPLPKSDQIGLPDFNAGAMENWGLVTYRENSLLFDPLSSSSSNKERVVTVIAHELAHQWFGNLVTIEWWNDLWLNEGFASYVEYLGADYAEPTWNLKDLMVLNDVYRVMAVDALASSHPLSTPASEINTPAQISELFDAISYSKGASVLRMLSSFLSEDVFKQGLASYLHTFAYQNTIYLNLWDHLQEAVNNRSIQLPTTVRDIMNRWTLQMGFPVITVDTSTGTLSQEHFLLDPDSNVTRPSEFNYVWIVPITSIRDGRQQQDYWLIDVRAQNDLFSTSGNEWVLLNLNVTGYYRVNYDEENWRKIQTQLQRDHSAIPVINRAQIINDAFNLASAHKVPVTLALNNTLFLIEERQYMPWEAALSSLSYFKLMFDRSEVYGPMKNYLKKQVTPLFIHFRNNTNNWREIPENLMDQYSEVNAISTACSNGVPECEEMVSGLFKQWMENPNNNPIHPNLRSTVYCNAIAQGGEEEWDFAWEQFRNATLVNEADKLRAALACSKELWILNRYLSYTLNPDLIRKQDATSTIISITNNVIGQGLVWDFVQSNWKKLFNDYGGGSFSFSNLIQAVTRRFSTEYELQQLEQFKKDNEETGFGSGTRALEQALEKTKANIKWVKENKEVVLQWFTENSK

SMILES: CC(C)C[C@H](NC(=O)[C@@H](O)[C@H](N)Cc1ccccc1)C(=O)O [bestatin]
- Inhibition of aminopeptidase activity (human aminopeptidase N): + (+ = >50 inhibition compared to mouse IgG control)
- Inhibition of SFV Infection [1]: − (− = no inhibition)
- IC50 (CMV strain AD169; [2]): 2500 µM
- inhibition at 4350 µM (CMV strain AD169; Human betaherpesvirus 5, AD169, read-out: Inhibition of CMV Infection): > 50%

SMILES: CCCCC[C@H](CC(=O)NO)C(=O)N[C@H](C(=O)N1CCC[C@H]1CO)C(C)C [actinonin]
- Inhibition of aminopeptidase activity (human aminopeptidase N): + (+ = >50 inhibition compared to mouse IgG control)
- Inhibition of SFV Infection [1]: − (− = no inhibition)
- inhibition at 5450 µM (CMV strain AD169; Human betaherpesvirus 5, AD169, chemical inhibitors at maximum non-toxic concentration: actinonin 5.45 mM, bestatin 4.35 mM, 1,10-phenanthroline 0.45 mM, 2,2′-dipyridyl 3.74 mM): > 50%
- IC50 (CMV strain AD169; Human betaherpesvirus 5, HL734 cells, CMV AD169, read-out: 50% inhibitory dose for CMV infection): 3300 µM

SMILES: c1ccc(-c2ccccn2)nc1 [2,2′-dipyridyl]
- Inhibition of aminopeptidase activity (human aminopeptidase N): + (+ = >50 inhibition compared to mouse IgG control)
- Inhibition of SFV Infection [1]: − (− = no inhibition)
- IC50 (CMV strain AD169; HL734 cells, CMV AD169, read-out: 50% inhibitory dose for CMV infection): 2800 µM
- Inhibition of CMV Infection (CMV strain AD169; [3]): + (+ = >50 inhibition compared to mouse IgG control)

SMILES: c1cnc2c(c1)ccc1cccnc12 [1,10-phenanthroline]
- Inhibition of aminopeptidase activity (human aminopeptidase N): + (+ = >50 inhibition compared to mouse IgG control)
- Inhibition of SFV Infection [1]: − (− = no inhibition)
- IC50 (CMV strain AD169; [2]): 250 µM
- Inhibition of CMV Infection (CMV strain AD169; [3]): + (+ = >50 inhibition compared to mouse IgG control)
